Structures are written as SMILES.

Two compounds from patent US10420341B2, “Herbicidal phenylpyrimidines” (BASF SE, priority 2015, dated 2019) can be followed below.

For experiment [1], the system named is AVEFA. Nature of the experiment: greenhouse pre-emergence herbicidal test. The format is in vivo, Avena fatua. The settings on record: pre-emergence method, application rate 500 g/ha, scale from 0 to 100. From the text: (§1) The seeds of the test plants were sown separately for each species. For the pre-emergence treatment, the active ingredients, which had been suspended or emulsified in water, were applied directly after sowing by means of finely distributing nozzles. The containers were irrigated gently to promote germination and growth and subsequently covered with transparent plastic hoods until the plants had rooted. This cover caused uniform germination of the test plants, unless this had been impaired by the active ingredients. Depending on the species, the plants were kept at 10-25° C. or 20-35° C., respectively. The test period extended over 2 to 4 weeks. During this time, the plants were tended, and their response to the individual treatments was evaluated. Evaluation was carried out using a scale from 0 to 100. 100 means no emergence of the plants, or complete destruction of at least the aerial moieties, and 0 means no damage, or normal course of growth. […] The plants used in the greenhouse experiments were of the following species: [table]

Experiment [2] concerns APESV. Nature of the experiment: greenhouse pre-emergence herbicidal test. The format is in vivo, Apera spica-venti. Conditions: pre-emergence method, application rate 500 g/ha, scale from 0 to 100. In a few lines:
(§2)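 Rated on a 0 (normal growth) to 100 (no emergence/total aerial kill) scale over a 2-4 week test period. Aqueous suspensions or emulsions applied by fine nozzles right after sowing, then plants held under hoods at 10-25 °C or 20-35 °C depending on species.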

Experiment [3] concerns ECHCG. Nature of the experiment: greenhouse post-emergence herbicidal test. The format is in vivo, Echinocloa crus-galli. The settings on record: post-emergence method, application rate 500 g/ha, scale from 0 to 100. Put shortly: (§3)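 Test plants were grown to 3–15 cm height, depending on habit, then sprayed post-emergence with active ingredient suspended or emulsified in water. Plants were kept at 10–25 °C or 20–35 °C by species for 2 to 4 weeks. Damage was scored 0–100, where 100 is complete destruction of aerial parts and 0 is normal growth.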

Experiment [4] concerns AVEFA. Briefly: greenhouse post-emergence herbicidal test. The format is in vivo, Avena fatua. The settings on record: post-emergence method, application rate 500 g/ha, scale from 0 to 100. In a few lines: as §3
Experiment [5] relates to ECHCG. Briefly: greenhouse pre-emergence herbicidal test. The format is in vivo, Echinocloa crus-galli. Conditions: pre-emergence method, application rate 500 g/ha, scale from 0 to 100. Put shortly: as §2
Experiment [6] deals with APESV. Nature of the experiment: greenhouse post-emergence herbicidal test. The format is in vivo, Apera spica-venti. The settings on record: post-emergence method, application rate 500 g/ha, scale from 0 to 100. An excerpt:
The seeds of the test plants were sown separately for each species. For the post-emergence treatment, the test plants were first grown to a height of 3 to 15 cm, depending on the plant habit, and only then treated with the active ingredients which had been suspended or emulsified in water. For this purpose, the test plants were either sown directly and grown in the same containers, or they were first grown separately as seedlings and transplanted into the test containers a few days prior to treatment. Depending on the species, the plants were kept at 10-25° C. or 20-35° C., respectively. The test period extended over 2 to 4 weeks. During this time, the plants were tended, and their response to the individual treatments was evaluated. Evaluation was carried out using a scale from 0 to 100. 100 means no emergence of the plants, or complete destruction of at least the aerial moieties, and 0 means no damage, or normal course of growth. […] The plants used in the greenhouse experiments were of the following species: [table]

The next experiment has as its system ALOMY. Nature of the experiment: greenhouse post-emergence herbicidal test. In kind it is in vivo, Alopercurus myosuroides. Conditions: post-emergence method, application rate 500 g/ha, scale from 0 to 100. In a few lines:
as §3

A further experiment concerns POLCO. Nature of the experiment: greenhouse pre-emergence herbicidal test. Conditions: pre-emergence method, application rate 500 g/ha, scale from 0 to 100. In kind it is in vivo, Polygonum convolvulus.
Description: as §1

For the compound `C#CCOC(=O)c1nc(C2CC2)ncc1-c1ccccc1Cl` [example 256], the “herbicidal activity against AVEFA” value in the experiment on AVEFA [1] and in the experiment on AVEFA [4] was “very good (a very good herbicidal activity is given at values of at least 85)” each time. The “herbicidal activity against APESV” value in the experiment on APESV [2] and in the experiment with APESV [6] was “very good (a very good herbicidal activity is given at values of at least 85)” in each case. In addition, the “herbicidal activity against ECHCG” value in the experiment with ECHCG [3] and in the experiment on ECHCG [5] was “very good (a very good herbicidal activity is given at values of at least 85)” each time.
As to `O=C(OCC(F)F)c1nc(C2CC2)ncc1-c1ccccc1Cl` [example 257], the “herbicidal activity against ALOMY” value with ALOMY is reported as “very good (a very good herbicidal activity is given at values of at least 85)”. Also, the “herbicidal activity against APESV” value with APESV [2] is listed as “very good (a very good herbicidal activity is given at values of at least 85)”. Further, the “herbicidal activity against ECHCG” value in the experiment on ECHCG [3] is on record as “good (A good herbicidal activity is given at values of at least 70)”; in the experiment with ECHCG [5], “very good (a very good herbicidal activity is given at values of at least 85)”. In the experiment on AVEFA [4], the “herbicidal activity against AVEFA” value was “very good (a very good herbicidal activity is given at values of at least 85)”. In addition, the “herbicidal activity against POLCO” value in the experiment with POLCO is listed as “very good (a very good herbicidal activity is given at values of at least 85)”.
